The text below walks through data of a melting point compilation (Tetko et al.; mined from patent text by program, amines drawn as free bases though some values may be those of a salt).

For the compound `CCCCCCC(Cc1ccc(OCCN2CCCCCC2)cc1)(C(=O)NO)S(=O)(=O)c1ccc(OC)cc1` (stereo not given), the melting point (as a rule, the temperature, or range, at which the solid turns liquid) came out at 65 °C.
Compound `Nc1nc2c(Cc3ccsc3)c(I)[nH]c2c(=O)[nH]1` showed a melting point of more than 260 °C.
To `COC(=O)Nc1nc2cc(C)[nH]c2c(=O)[nH]1` belongs 234 to 236 °C.
`COC(=O)C1=C(C)Nc2ccccc2SC1c1cccc(Cl)c1Cl` (stereo not given) registered a melting point of 190 to 191 °C.
Compound `COc1ccc(Nc2cccc(Cl)c2N)cc1` displayed a melting point of 65 to 66 °C.
In turn, `CNC(=O)c1ccc(NCC(=O)O)cc1` registered a melting point of 234 °C.
Take `N#CC(C#N)CC(=O)c1ccc(Cl)s1`: the melting point was 155 to 158 °C.
For the compound `CCOC(=O)CCCn1c(=O)[nH]c2ccccc21`, the melting point came to 88 °C.
Turning to `NC(=O)C1CN(Cc2nc(-c3ccccc3)c(-c3ccccc3)o2)CCN1CC(=O)Nc1c(Cl)cc(N)cc1Cl` (stereo not given), the melting point was 137 to 139 °C.
As for `COc1cccc(Cc2nc3c(cnn3C(CCCc3ccccc3)C(C)O)c(=O)[nH]2)c1` (stereo not given), the melting point was found to be 54 °C.
With `Nc1cccc(-c2ccc(CC3CCCCN3Cc3ccccc3)cc2)n1` (stereo not given), the melting point was in the range of 70 to 85 °C.
To `CC(C)(C)OC(=O)c1ccc(C(=O)NS(=O)(=O)c2ccccc2)cc1` belongs 141 to 143 °C.
As for `CCn1ncc2c3c(cnc21)C(N)(OC)N=C1N=CNN13` (stereo not given), the melting point is 215 to 216 °C.
In turn, `CC(C)(C)OC(=O)Nc1ccccc1NC(=O)c1ccc(C(=O)O)cc1` registered a melting point of 190 to 192 °C.
In turn, `CC(=O)Nc1nc2c(s1)-c1c(c(-c3c[nH]cn3)nn1-c1ccccc1C(F)(F)F)CC2` had a melting point of more than 300 °C.
In turn, `CC1(O)C=CC2C3CCC4=CC(=O)CCC4C3C(c3ccc(-c4ccoc4)cc3)CC21C` (stereo not given) displayed a melting point of 179 °C.
Regarding `Nc1ccc(C(=O)c2cnc(NC3CCCCC3)s2)cc1[N+](=O)[O-]`, the melting point is 245 to 250 °C.
In turn, `CCOC(=O)C(Cc1ccccc1)NC(=O)COc1ccc(C2=NNC(=O)NC2)cc1` (stereo not given) displayed a melting point of 148 to 150 °C.
With `Nc1ccccc1Sc1ccccc1-c1nnn[nH]1`, the melting point was in the range of 153 to 156 °C.
To `Cc1ncnc(-c2ccc(Cl)cc2F)c1Cl` belongs 77 to 79 °C.
`CCOC(OCC)N1C(=O)C(c2ncnc3cc(OCCOC)c(OC)cc23)c2cc(F)ccc21` (stereo not given) showed a melting point of 245 to 255 °C.
Under `C#CCN1C(=O)COc2cc(F)c(N)cc21` stands 132 to 134 °C; under `Cc1ccnc(-c2nc3ccccc3[nH]2)c1`, 228 to 229 °C.
Consider `Brc1cncc2ncc(Br)n12`, for which the melting point was determined as 150 °C.
Take `O=C(Nc1ccc(Cl)c(C(F)(F)F)c1)c1ccccc1SSc1ccccc1C(=O)Nc1ccc(Cl)c(C(F)(F)F)c1`: the melting point lay within 129 to 131 °C.
To `CCCOc1ccc2cc(OCc3ccccc3)c(C(=O)O)cc2c1` belongs 125 to 128 °C; to `CC12CCCC1C1=CCc3cc(O)ccc3C1CC2` (stereo not given), 130 to 134 °C; to `Fc1cc(CC2(Cc3ccncc3)c3cccnc3-c3ncccc32)ccn1`, 228 to 230 °C.
In turn, `CC(C)OC(=O)c1cc(NC(=O)c2ccccc2)c(F)cc1Cl` had a melting point of 117 to 119 °C.
`CCOC(=O)c1c(CN2CCC(C(=O)OCC)CC2)nc2sc3c(c2c1-c1ccc(OC)c(OC)c1)CCN(C(=O)c1ccc(Cl)cc1)C3` displayed a melting point of 99 to 101 °C.
`O=C(Nc1ccc(C(=O)N2CCc3cn[nH]c3-c3ccccc32)cn1)c1ccccc1-c1ccccc1`: the melting point lay within 228 to 234 °C.
To `O=C(O)CCCc1cc2nc(Cl)ccc2n1S(=O)(=O)c1c(F)cccc1F` belongs 192 to 195 °C; to `CN(C(=O)C(C)(C)N1C(=O)c2ccccc2C1=O)C(c1ccc(F)cc1)c1ccc(F)cc1`, 169 to 171 °C; to `CCOC1CCC2(C)C(=CCC3C4CCC(=O)C4(C)CCC32)C1` (stereo not given), 146 to 147 °C.
`O=Cc1c(Cl)cc(O)c(O)c1Cl` gave a melting point of 213 to 215 °C.
In the case of `COCC1CN(c2ccc(C3CCC(CCNC(C)=O)CC3)cc2)C(=O)O1` (racemic), the melting point lay in the range of 120 to 122 °C.
Under `Cn1c(=Nc2cccnc2)sc2ncccc2c1=O` stands 160 °C; under `Oc1ccc(Cl)cc1C(O)(C1CCCCC1)C1CCCCC1`, 230 °C; under `CCOC(=O)C=Cc1ccc(C(C)(C)C)c(NC(=O)CC2c3ccccc3Oc3ccccc32)c1`, 180 to 181 °C.
As to `COC1CCC(NC(=O)C2CC3c4cccc5c4c(cn5C(C)C)CC3N(C)C2)CC1` (stereo not given), the melting point was more than 230 °C.
Take `CCOC(=O)Nc1ccc(OC)c(OC)c1`: the melting point was in the range of 75 to 78 °C.
On to `COc1cc(C2CCN(C)CC2)ccc1Nc1ncc2ccc(-c3ccccc3OC)n2n1`, for which the melting point was 71 to 84 °C.
Turning to `C=CCOc1ccccc1C1C=NNC(=O)C1` (stereo not given), the melting point was in the range of 93 to 95 °C.
`Cc1cccc(C(=O)Cc2ccnc(-c3ccc(OCC(N)=O)cc3)c2)n1` displayed a melting point of 144 to 146 °C.
`Cc1cccc2c1S(=O)(=O)NC(C1CCCCC1)N2` (stereo not given) returned a melting point of 228 to 230 °C.
To `CCCCN(c1nc(NCCCCCCN)nc(N(CCCC)C2CC(C)(C)N(C)C(C)(C)C2)n1)C1CC(C)(C)N(C)C(C)(C)C1` belongs 125 °C; to `N#Cc1ccc2cc(C(N)=O)[nH]c2c1`, 241 to 242 °C; to `CCCCc1oc2ccccc2c1C(=O)c1ccc(NS(=O)(=O)c2cccnc2)cc1`, 130 °C.
`O=C(O)C1CCc2c(sc3cc(F)ccc23)C1` (stereo not given) returned a melting point of 195 to 198 °C.
On to `Fc1ccc(Cn2c(NC3CCN(CCNc4nc5ccccc5n4Cc4ccc(Cl)c(Cl)c4)CC3)nc3ccccc32)cc1`, for which the melting point is 113 °C.
`O=Cc1csc(NC2CC2)n1` came in with a melting point of 124 to 127 °C.
On to `COC(=O)Cc1cnc(-c2ccccc2)n1Cc1ccccc1`, for which the melting point was 78 to 79 °C.
`OC1CCc2c(F)cc(F)cc2C1` (stereo not given) had a melting point of 85 °C.
In turn, `O=C(Nc1ccc(Cl)cc1)C1=C(N2CCCC2)CS(=O)(=O)N(Cc2ccc(Cl)cc2)c2ccccc21` had a melting point of 190 to 194 °C.
`COc1ccc2nc(Cl)cc(C)c2c1` yielded a melting point of 144 to 145 °C.
Compound `CC(C)(C)OC(=O)N1CCC[C@@H](O)[C@H](C(=O)O)C1` showed a melting point of 98.5 to 102 °C.
For the compound `CC(=O)Oc1cc2c(cc1C(C)(C)CC(C)(C)C)OC(C)(COc1ccc([N+](=O)[O-])cc1)CC2=O` (stereo not given), the melting point is 166 to 167 °C.
To `CCOC(=O)Nc1nc2ccccc2c2c(CC(C)C)n(C)nc12` belongs 120 to 121 °C; to `Cn1c2c(cnc3c([N+](=O)[O-])cccc32)c(=O)n1C(=O)OC(C)(C)C`, more than 250 °C; to `c1ccc(-c2nnc3cc(-c4ccsc4)c(OCc4ncn[nH]4)nn23)cc1`, 264 to 266 °C.
Under `CCc1c2c(c(C)c(C)c1N1CCN(c3ccc(OC)cc3)CC1)OC(C)(C)C2` stands 150 to 151 °C; under `O=C(Nc1nc2cc(O)ccc2[nH]1)NC1CC1`, 320 °C; under `O=C(CCS)N[C@@H](Cc1ccc(O)c(O)c1)C(=O)O`, 89 to 91 °C.
`CNC(=N[N+](=O)[O-])N(Cc1cnc(Cl)s1)C(=O)N1CCOCC1` had a melting point of 130 to 131 °C.
Consider `Brc1ccc(-c2ccc(Br)cc2I)c(I)c1`, for which the melting point amounted to 89 °C.
To `COC(=O)c1ccc(CO)cc1SCc1ccccc1` belongs 89.5 to 92 °C.
In the case of `CCOc1ccc(-c2nc3n(c2-c2ccc(OCC)cc2)CCS3)cc1`, the melting point was in the range of 214 to 215 °C.
Consider `CCCCCC(=O)OCc1cc(O)ncn1`, for which the melting point is 133 to 134 °C.
The compound `C(=C\c1nc(COc2ccc(CCCCCn3cncn3)cc2)co1)/c1ccccc1` came in with a melting point of 103 to 104 °C.
The compound `Cc1c(NC(=O)c2ccc(-c3ccccc3Cl)cc2)ccc2cc(CN3CCCC3)cnc12` gave a melting point of 128 to 129 °C.
Compound `CCNc1nc2cccc(C(=O)OC)c2n1Cc1ccc(-c2ccccc2-c2nnn[nH]2)cc1` yielded a melting point of 256 to 258 °C.
For `CCCCCCNc1nc(-c2ccccc2)c(-c2ccc(=O)n(C(C)C)n2)s1`, the melting point fell in the range of 90 to 92 °C.
On to `COC(=O)c1ccc(-c2ccc3cc(OCc4ccccc4)c(C45CC6CC(CC(C6)C4)C5)cc3c2)s1`, for which the melting point was 170 to 171 °C.
For `COC(=O)c1ncc(OS(=O)(=O)c2ccc(C)cc2)c2c1[nH]c1ccccc12`, the melting point is 230 to 231 °C.
The compound `CCC(=C(c1ccccc1)c1ccc(N(CCN(CC)CC)S(C)(=O)=O)cc1)c1ccc(OC)cc1` gave a melting point of 120 to 130 °C.
Regarding `COc1cc(Cc2nnc(N[C@H]3CC[C@H](C(C)C)CC3)c3ccccc23)ccn1`, the melting point is 65 to 66 °C.
`OC1CCc2c(I)cccc21` (stereo not given) gave a melting point of 83 to 84 °C.
`CCC(=O)c1ccc(OC)c(OC(C)C)c1` came in with a melting point of 58.1 to 58.7 °C.
Regarding `CC(C)C[C@H]1COCC(=O)N1`, the melting point lay in the range of 69 to 70 °C.
The compound `COc1cccc(NC(=O)N(C)Cc2cccc3c2CN(C2CCC(=O)NC2=O)C3=O)c1` (stereo not given) displayed a melting point of 296 to 298 °C.
Under `O=[N+]([O-])c1ccc(-c2ccc(CCl)o2)cc1` stands 97 to 99 °C; under `Cc1nc2c(s1)-c1nc(N(C)c3cccc([N+](=O)[O-])c3)ncc1CC2`, 203 to 204 °C.
In turn, `CNC(=O)c1ccc(C)c(-c2nc(SC)nc3c2CNC(=O)N3c2c(F)cccc2F)c1` returned a melting point of 273 to 275 °C.
Under `CNc1cc(Oc2ccc3c(C(=O)O)cccc3c2)ncn1` stands 267 to 268 °C.
`COc1ccc(CNC=C(C(C)=O)C(C)=O)cc1` yielded a melting point of 91.2 to 92.2 °C.
The compound `O=C1CC(OCc2ccccc2)C2COC1O2` (stereo not given) yielded a melting point of 118 to 119 °C.
For `N#Cc1ccc(-c2ccc(OCCCCCCC(=O)NO)cc2)cc1`, the melting point was in the range of 79 to 82 °C.
As for `CCN1Cc2ccccc2P1(=O)c1ccccc1` (stereo not given), the melting point was in the range of 94 to 95 °C.
In turn, `C#CCNc1ccc([N+](=O)[O-])cc1C` came in with a melting point of 121 to 123 °C.
The compound `C[C@H](NC(=O)[C@H](Cc1ccccc1)NC(=O)CS)C(=O)O` had a melting point of 172 to 174 °C.
